# Entries after “also recorded” stand apart in the source; their conditions may differ.
# How the values were obtained:
# [1] = test system: HIV; assay: Inhibition of HIV replication in experimental T cell cancer lines; assay type: cell-based
# [2] = test system: vsv-g pseudotyped HIV-1 virus; assay type: cell-based
# [3] = test system: vsv-g pseudotyped HIV-1 virus; assay type: cell-based; remark: listed apart in the source
# [4] = in vivo; cited from earlier work
# [5] = molecular target: Human recombinant dCK (Homo sapiens, UniProt P27707); assay: dCK inhibition curve with deoxyinosine as substrate; assay type: biochemical; settings: deoxyinosine (dIR) substrate, duplicate
# Protocol: Inhibiting the activity of the dCK enzyme is useful. […] Human recombinant dCK activity was characterized using deoxyinosine (dIR) as a substrate. Assays were performed in duplicate in 200 μL of reaction mixture (96-well plate). Reactions were started by adding dIR at various concentrations and the percent inhibition was determined as compared to the positive control via spectrophotometer. […] (See FIG. 35).
# [6] = test system: HIV; assay: EC50 stated in embodiments, test not specified; assay type: cell-based
# [7] = test system: cells; settings: cited from earlier work
# [8] = test system: HIV-1 (wt); assay: Inhibition of HIV replication in primary peripheral blood mononuclear cells (p24 ELISA); assay type: cell-based; settings: Human immunodeficiency virus 1, PBMC, read-out: EC50, inhibition of HIV replication
# Protocol: Human peripheral blood mononuclear cells (PBMCs) purified from donors were cultured (RPMI+10% FBS) and stimulated pre-infection (24 hrs) and every 3 days for three weeks with 2 ng/ml of phytoheaemagglutinin (PHA) and 1 U/ml IL-2. 24 hours following the initial stimulation the samples were incubated for one hour with the indicated amounts of NSC166641 and then infected with 300 ng HIV-1 (wt). Samples were analyzed via ELISA p24. (See FIG. 7).
# [9] = molecular target: T1, reverse transcriptase (RT) (Human immunodeficiency virus type 1 group M subtype B, UniProt P03366); assay: Roche reverse transcriptase assay kit; assay type: biochemical; settings: indicated amounts
# T1 construct: Results of the Roche reverse transcriptase (AT) assay kit; purchased Roche
# Protocol: Results of the Roche reverse transcriptase […] assay kit utilizing the indicated amounts of NSC166641. RT activity was measured as a percentage compared to the positive control. […] (See FIG. 9).
# [10] = test system: HIV-1 (wt) virus; assay type: cell-based
# Protocol: G11 HIV reporter cells (200K) were seeded in 5 ml falcon tubes (RPMI+10% FBS) and incubated with the indicated amounts of NSC129220 (CAS 10212-28-9) for one hour before infection with HIV-1 (wt) virus (250 ng). Samples were stained with propidium iodide and analyzed for GFP expression via flow cytometer at 48 and 72 hours post infection. (See FIG. 2).
# Example FACS dot plots of live G11 cells expressing HIV induced expression of GFP. […] (See FIG. 27).
# Human recombinant dCK, sequence (P27707 whole entry): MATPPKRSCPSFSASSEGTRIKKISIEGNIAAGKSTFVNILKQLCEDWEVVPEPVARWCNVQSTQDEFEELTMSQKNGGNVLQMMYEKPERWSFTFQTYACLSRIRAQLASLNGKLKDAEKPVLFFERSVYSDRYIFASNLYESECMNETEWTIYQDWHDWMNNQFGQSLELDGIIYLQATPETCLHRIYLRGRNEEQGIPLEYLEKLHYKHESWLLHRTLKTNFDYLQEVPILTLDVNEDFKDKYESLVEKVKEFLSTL
structure (smiles),measurement,setting,value
"N=c1nc2n(cc1F)[C@@H]1O[C@H](CO)[C@@H](O)[C@@H]1O2 [AAFC, 5-fluoro-2,2′cyclocytidine]",EC50,"[1]; Human immunodeficiency virus 1, read-out: EC50, inhibition of HIV replication, experimental T cell cancer lines",< 500 nM
same,concentration directly inhibiting HIV replication in vitro,[1]; a number of experimental cell lines and primary cells,< 500 nM
same,inhibition of HIV replication on post infection treatment,"[1]; post exposure of cells infected with HIV-1, experimental cell lines",dramatically inhibit HIV replication
same,"rescue of luciferase expression by dC, dT or both",[2],addition of dC but not dT may be able to rescue luciferase expression in treated cells
same,rescue of luciferase expression by deoxycytidine,[2],Addition of dC appears to be able to rescue luciferase expression in treated cells; also recorded: Addition of dC is able to rescue luciferase expression in treated cells
same,dose dependent effect on Clone 64 cells,[3],dose dependent effect
same,dose-dependent activity (luciferase),[3],Dose-dependent activity was detected
same,lowest dose at which anti-HIV activity was seen,[3],40 µM
same,fraction of reagent passed through the body unchanged,[4],over 80%
same,phosphorylation compared to Ara-C,[4],less easily phosphorylated as compared to Ara-C
same,IC50,[5],32 µM
same,EC50,"[6]; Human immunodeficiency virus 1, another aspect of embodiments, read-out: EC50",~10 nM
same,EC50,"[6]; Human immunodeficiency virus 1, one aspect of embodiments",~0.7 nM
same,reversal of cell growth inhibition by nucleosides,[7],reversed by deoxycytidine but not by thymidine and deoxyuridine
same,thymidine incorporation,[7],inhibited thymidine incorporation into the acid-soluble fraction (DNA) of the cells
same,EC50,[8],< 0.7 nM
same,inhibition of RT activity vs positive control,[9],little or no inhibition of RT
"Cc1cn([C@H]2C[C@H](N=[N+]=[N-])[C@@H](CO)O2)c(=O)[nH]c1=O [AZT, zidovudine]",dose dependent effect on Clone 64 cells,[3],dose dependent effect
O=C(O)c1ccccc1 [Benzoic acid],anti-HIV activity in screen (luciferase expression),[3],Activity was not detected
"CC(=O)O.N=c1ccn2c(n1)OC1C(O)C(CO)OC12 (centres unmarked) [NSC129220, O2,2′-cyclocytidine monoacetate]",rescue of luciferase expression by deoxycytidine,[2],Addition of dC is able to rescue luciferase expression in treated cells
same,dose-dependent activity (luciferase),[3],Dose-dependent activity was detected
same,lowest dose at which anti-HIV activity was seen,[3],40 µM
same,cell viability,"[10]; FACS GFP assay, treated reporter cells (FIG. 27)",> 60%
same,inhibition of HIV induced GFP expression (confirmation of screen),"[10]; live G11 cells, FACS dot plots",inhibition of HIV
"Cl.N=c1ccn2c(n1)O[C@H]1[C@H](O)[C@@H](CO)O[C@H]12 [O2,2′-cyclocytidine hydrochloride]",lowest dose at which anti-HIV activity was seen,[3],40 µM
"O=C1CN=C(c2ccc[nH]2)c2cc(Cl)ccc2N1 [benzodiazipen, Benzodiazepen]",anti-HIV activity in screen (luciferase expression),[3],Anti-HIV activity was detected
CCOC(N)=O [ethyl carbamate],anti-HIV activity in screen (luciferase expression),[3],Activity was not detected
"COc1ccc2[nH]c3c(C)c4ccncc4c(C)c3c2c1 [methoxyellipticine, Methoxyellipticine]",anti-HIV activity in screen (luciferase expression),[3],Anti-HIV activity was detected
c1ccc2ccccc2c1 [napthalen],anti-HIV activity in screen (luciferase expression),[3],Activity was not detected
